The results in this text go back to PMC4881381, “Subcellular Localization of Galloylated Catechins in Tea Plants [Camellia sinensis (L.) O. Kuntze] Assessed via Immunohistochemistry” (Frontiers in Plant Science, 2016).

Molecules are shown by their SMILES.

The target of this assay is T1, anti-galloylated catechin monoclonal antibody (mAb) P6C2.
T1 construct: whole purified mAb (~150 kDa; 50 kDa heavy and 25 kDa light chains), biotinylated
Briefly: bio-layer interferometry (ForteBio Octet Red […], SSA biosensors); direct ELISA. The class given is binding. (BLI is a label-free optical method that tracks binding on a fibre tip over time.)

Compound `O=C(O[C@@H]1Cc2c(O)cc(O)cc2O[C@@H]1c1cc(O)c(O)c(O)c1)c1cc(O)c(O)c(O)c1` [EGCG, (-)-epigallocatechin-3-gallate] came in with a Kd of 9.25 µM.

Regarding `O=C(O[C@@H]1Cc2c(O)cc(O)cc2O[C@@H]1c1ccc(O)c(O)c1)c1cc(O)c(O)c(O)c1` [ECG, (-)-epicatechin-3-gallate], the Kd is 0.197 µM.

What is called Kd is the free concentration of one partner at which half of the binding sites on the other are occupied at equilibrium, for simple one-to-one binding.
